Reference: ChEMBL document CHEMBL2203203, “Structure-activity relationships of 2-arylamido-5,7-dihydro-4H-thieno[2,3-c]pyran-3-carboxamide derivatives as cannabinoid receptor agonists and their analgesic action” (Bioorg Med Chem Lett, 2012)
pEC50, pKi: −log10 of the molar value. Activity calls are given as the source filed them.

Tests used:
Cannabinoid receptor 1 [1] = target: T1, Cannabinoid receptor 1 (Homo sapiens, UniProt P21554); experiment: Displacement of [3H]-CP55,940 from human CB1 receptor after 60 mins by microscintillation counting analysis
Mus musculus = experiment: Analgesic activity in NMRI mouse assessed as inhibition of acetic acid-induced writhing at 30 mg/kg, po measured for 30 mins relative to vehicle-treated control; assay type: functional; settings: for inhibition in vivo at 30 mg/kg: 0.5 h
Cannabinoid receptor 2 [2] = target: T2, Cannabinoid receptor 2 (Homo sapiens, UniProt P34972); experiment: Agonist activity at human CB2 receptor after 4 hrs by luciferase reporter gene assay; assay type: functional
Homo sapiens = organism: Homo sapiens; experiment: Selectivity ratio of EC50 for human CB1 receptor to EC50 for human CB2 receptor
Cannabinoid receptor 2 [3] = target: T3, Cannabinoid receptor 2 (Rattus norvegicus, UniProt Q9QZN9); experiment: Displacement of [3H]-CP55,940 from rat CB2 receptor after 60 mins by microscintillation counting analysis
T3 sequence (Q9QZN9 whole entry): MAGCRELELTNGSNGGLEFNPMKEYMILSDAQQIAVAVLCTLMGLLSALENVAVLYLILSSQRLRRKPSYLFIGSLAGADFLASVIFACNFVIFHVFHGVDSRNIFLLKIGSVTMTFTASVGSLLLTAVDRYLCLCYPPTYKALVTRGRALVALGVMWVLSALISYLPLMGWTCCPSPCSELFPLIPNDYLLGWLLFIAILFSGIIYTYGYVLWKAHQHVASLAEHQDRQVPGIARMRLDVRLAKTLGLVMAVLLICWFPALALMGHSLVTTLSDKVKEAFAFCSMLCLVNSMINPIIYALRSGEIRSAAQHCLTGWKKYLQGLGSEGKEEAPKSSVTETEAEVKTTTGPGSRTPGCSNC

Cannabinoid receptor 2 [4] = target: T2, Cannabinoid receptor 2; experiment: Agonist activity at human CB2 receptor after 4 hrs by luciferase reporter gene assay relative to control; assay type: functional
Cannabinoid receptor 2 [5] = target: T2, Cannabinoid receptor 2; experiment: Displacement of [3H]-CP55,940 from human CB2 receptor after 60 mins by microscintillation counting analysis
Cannabinoid receptor 1 [6] = target: Cannabinoid receptor 1 (Rattus norvegicus, UniProt P20272); experiment: Displacement of [3H]-CP55,940 from rat CB1 receptor after 60 mins by microscintillation counting analysis
[7] = Half life in rat liver microsomes; assay type: ADME, Microsome
Cannabinoid receptor 1 [8] = target: T1, Cannabinoid receptor 1; experiment: Agonist activity at human CB1 receptor after 4 hrs by luciferase reporter gene assay; assay type: functional
Cannabinoid receptor 1 [9] = target: T1, Cannabinoid receptor 1; experiment: Agonist activity at human CB1 receptor after 4 hrs by luciferase reporter gene assay relative to control; assay type: functional
[10] = Half life in mouse liver microsomes; assay type: ADME, Microsome
[11] = Half life in human liver microsomes; assay type: ADME, Microsome
Rattus norvegicus [12] = experiment: Analgesic activity in carrageenan-induced Sprague-Dawley rat allodynia model assessed as effect on paw withdrawal threshold at 10 mg/kg, po after 30 mins; assay type: functional, organism-based; parameters: dose 10 mg/kg
Rattus norvegicus [13] = experiment: Analgesic activity in carrageenan-induced Sprague-Dawley rat allodynia model assessed as increase in paw withdrawal threshold at 30 to 100 mg/kg, po after 30 mins; assay type: functional, organism-based
[14] = AUC in rat at 1 mg/kg, iv; assay type: ADME, organism-based; parameters: dose 1 mg/kg, route intravenous; settings: plasma
[15] = Half life in rat at 1 mg/kg, iv; assay type: ADME, organism-based; parameters: dose 1 mg/kg, route intravenous; settings: in vivo
[16] = Clearance in rat at 1 mg/kg, iv; assay type: ADME, organism-based; parameters: dose 1 mg/kg, route intravenous; settings: in vivo
[17] = Tmax in rat at 3 mg/kg, po; assay type: ADME, organism-based; parameters: dose 3 mg/kg, route oral; settings: in vivo
[18] = Volume of distribution at steady state in rat at 1 mg/kg, iv; assay type: ADME, organism-based; parameters: dose 1 mg/kg, route intravenous; settings: in vivo, read-out: Vdss
[19] = Oral bioavailability in rat at 3 mg/kg; assay type: ADME, organism-based; settings: in vivo
[20] = Half life in rat at 3 mg/kg, po; assay type: ADME, organism-based; parameters: dose 3 mg/kg, route oral; settings: in vivo
Rattus norvegicus [21] = experiment: Analgesic activity in carrageenan-induced Sprague-Dawley rat allodynia model assessed as increase in paw withdrawal threshold at 10 to 30 mg/kg, po after 90 mins; assay type: functional, organism-based
[22] = target: Cannabinoid receptor 2 (Mus musculus) (UniProt P47936); experiment: Agonist activity at mouse CB2 receptor after 4 hrs by luciferase reporter gene assay relative to control; assay type: functional
Cannabinoid receptor 2 [23] = target: Cannabinoid receptor 2 (Mus musculus, UniProt P47936); experiment: Agonist activity at mouse CB2 receptor after 4 hrs by luciferase reporter gene assay; assay type: functional
Cannabinoid receptor 2 (Mus musculus, UniProt P47936), sequence (P47936 whole entry): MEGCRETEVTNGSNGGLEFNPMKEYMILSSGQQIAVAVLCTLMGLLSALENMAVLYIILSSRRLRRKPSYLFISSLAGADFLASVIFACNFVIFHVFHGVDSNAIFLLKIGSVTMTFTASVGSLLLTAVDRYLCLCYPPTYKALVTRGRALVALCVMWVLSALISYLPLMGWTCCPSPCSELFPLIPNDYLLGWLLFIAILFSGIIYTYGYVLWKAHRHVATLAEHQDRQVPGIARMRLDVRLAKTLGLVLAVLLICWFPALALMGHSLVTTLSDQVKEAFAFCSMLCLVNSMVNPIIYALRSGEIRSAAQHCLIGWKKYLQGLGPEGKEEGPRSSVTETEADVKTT

Cannabinoid receptor 1 (Rattus norvegicus, UniProt P20272), sequence (P20272 whole entry): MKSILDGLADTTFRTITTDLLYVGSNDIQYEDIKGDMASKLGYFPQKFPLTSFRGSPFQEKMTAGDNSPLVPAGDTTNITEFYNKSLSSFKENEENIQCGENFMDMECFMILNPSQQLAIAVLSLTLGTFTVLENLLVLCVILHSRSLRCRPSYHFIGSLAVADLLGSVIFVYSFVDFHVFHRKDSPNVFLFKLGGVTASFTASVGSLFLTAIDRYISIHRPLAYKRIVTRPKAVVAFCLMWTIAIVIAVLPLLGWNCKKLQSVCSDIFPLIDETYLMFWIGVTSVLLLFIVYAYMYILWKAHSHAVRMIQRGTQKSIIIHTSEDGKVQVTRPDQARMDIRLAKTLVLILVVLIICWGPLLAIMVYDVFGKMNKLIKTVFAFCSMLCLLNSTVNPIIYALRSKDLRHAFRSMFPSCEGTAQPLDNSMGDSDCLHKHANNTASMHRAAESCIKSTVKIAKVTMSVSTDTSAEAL
T2 sequence (P34972 whole entry): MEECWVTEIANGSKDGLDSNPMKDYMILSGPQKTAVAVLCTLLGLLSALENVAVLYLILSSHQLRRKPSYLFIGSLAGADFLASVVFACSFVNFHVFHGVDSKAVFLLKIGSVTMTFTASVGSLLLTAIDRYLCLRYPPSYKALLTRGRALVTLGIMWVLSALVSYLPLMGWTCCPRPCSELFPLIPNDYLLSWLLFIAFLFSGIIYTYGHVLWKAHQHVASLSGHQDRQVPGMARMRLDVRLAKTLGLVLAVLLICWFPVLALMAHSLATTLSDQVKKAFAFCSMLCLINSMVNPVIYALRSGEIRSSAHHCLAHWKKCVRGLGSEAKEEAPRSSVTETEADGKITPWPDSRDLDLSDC
T1 sequence (P21554 whole entry): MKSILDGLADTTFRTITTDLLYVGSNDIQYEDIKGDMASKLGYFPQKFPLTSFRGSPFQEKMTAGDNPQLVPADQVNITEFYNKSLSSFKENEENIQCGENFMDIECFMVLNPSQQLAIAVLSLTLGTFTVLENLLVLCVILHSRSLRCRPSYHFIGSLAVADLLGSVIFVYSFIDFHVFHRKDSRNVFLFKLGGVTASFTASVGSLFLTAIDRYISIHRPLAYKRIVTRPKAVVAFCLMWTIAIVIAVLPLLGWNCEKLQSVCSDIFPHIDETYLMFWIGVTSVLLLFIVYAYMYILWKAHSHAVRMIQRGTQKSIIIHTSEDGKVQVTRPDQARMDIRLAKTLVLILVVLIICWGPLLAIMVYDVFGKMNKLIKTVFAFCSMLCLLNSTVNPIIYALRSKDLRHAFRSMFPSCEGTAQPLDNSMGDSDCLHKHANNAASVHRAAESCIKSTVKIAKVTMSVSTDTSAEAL
Cannabinoid receptor 2 (Mus musculus), sequence (P47936 whole entry): as the sequence (P47936 whole entry) above

## COCCNC(=O)c1c(NC(=O)c2ccccc2C(F)(F)F)sc2c1CCOC2
Cannabinoid receptor 1 [1]
  pKi: < 4.52
Mus musculus
  inhibition: inactive
Cannabinoid receptor 2 [2]
  pEC50: 7.77
Homo sapiens
  Ratio EC50: 525
Cannabinoid receptor 2 [3]
  pKi: 5.60
Cannabinoid receptor 2 [4]
  Efficacy: 93%
Cannabinoid receptor 2 [5]
  pKi: 6.00
Cannabinoid receptor 1 [6]
  pKi: < 4.52
[7]
  half-life: 17.8 min
Cannabinoid receptor 1 [8]
  pEC50: 5.06
Cannabinoid receptor 1 [9]
  Efficacy: 45%
[10]
  half-life: 19.8 min

## O=C(Nc1sc2c(c1C(=O)N1CC(F)(F)C1)CCOC2)c1ccccc1OC(F)(F)F
Cannabinoid receptor 1 [1]
  pKi: < 4.52
Mus musculus
  inhibition: inactive
Cannabinoid receptor 2 [2]
  pEC50: 8.33
Homo sapiens
  Ratio EC50: 420
Cannabinoid receptor 2 [3]
  pKi: 5.34
Cannabinoid receptor 2 [4]
  Efficacy: 104%
Cannabinoid receptor 2 [5]
  pKi: 6.62
Cannabinoid receptor 1 [6]
  pKi: < 4.52
[7]
  half-life: 6.4 min
Cannabinoid receptor 1 [8]
  pEC50: 5.70
Cannabinoid receptor 1 [9]
  Efficacy: 104%
[10]
  half-life: 25.5 min

## COC1CN(C(=O)c2c(NC(=O)c3ccccc3C(F)(F)F)sc3c2CCOC3)C1
Cannabinoid receptor 1 [1]
  pKi: < 4.52
Mus musculus
  inhibition in vivo at 30 mg/kg: 15%
Cannabinoid receptor 2 [2]
  pEC50: 7.82
Homo sapiens
  Ratio EC50: 387
Cannabinoid receptor 2 [3]
  pKi: 5.51
Cannabinoid receptor 2 [4]
  Efficacy: 98%
Cannabinoid receptor 2 [5]
  pKi: 6.05
Cannabinoid receptor 1 [6]
  pKi: < 4.52
[7]
  half-life: 50.4 min
Cannabinoid receptor 1 [8]
  pEC50: 5.22
Cannabinoid receptor 1 [9]
  Efficacy: 53%
[10]
  half-life: 37.3 min

## COCCNC(=O)c1c(NC(=O)c2c(F)cccc2C(F)(F)F)sc2c1CCOC2
Cannabinoid receptor 1 [1]
  pKi: < 4.52
Mus musculus
  inhibition: inactive
Cannabinoid receptor 2 [2]
  pEC50: 7.62
Homo sapiens
  Ratio EC50: 385
Cannabinoid receptor 2 [3]
  pKi: 5.77
Cannabinoid receptor 2 [4]
  Efficacy: 96%
Cannabinoid receptor 2 [5]
  pKi: 6.04
Cannabinoid receptor 1 [6]
  pKi: < 4.52
[7]
  half-life: 13.6 min
Cannabinoid receptor 1 [8]
  pEC50: 5.03
Cannabinoid receptor 1 [9]
  Efficacy: 58%
[10]
  half-life: 21 min

## O=C(Nc1sc2c(c1C(=O)N1CCCCC1)CCOC2)c1ccccc1OC(F)(F)F
Cannabinoid receptor 1 [1]
  pKi: 4.71
Mus musculus
  inhibition: inactive
Cannabinoid receptor 2 [2]
  pEC50: 8.02
Homo sapiens
  Ratio EC50: 98
Cannabinoid receptor 2 [3]
  pKi: 5.67
Cannabinoid receptor 2 [4]
  Efficacy: 101%
Cannabinoid receptor 2 [5]
  pKi: 6.46
Cannabinoid receptor 1 [6]
  pKi: 4.65
[7]
  half-life: 3.52 min
Cannabinoid receptor 1 [8]
  pEC50: 6.03
Cannabinoid receptor 1 [9]
  Efficacy: 85%
[10]
  half-life: 10 min

## O=C(Nc1sc2c(c1C(=O)N1CC(F)(F)C1)CCOC2)c1c(F)cccc1C(F)(F)F
[11]
  half-life: 25.4 min
Rattus norvegicus [12]
  Activity: inactive
Rattus norvegicus [13]
  Activity: Active
[14]
  AUC: 165 ng·h/mL
Cannabinoid receptor 1 [1]
  pKi: 4.95
Mus musculus
  inhibition in vivo at 30 mg/kg: 38%
[15]
  half-life: 30 min
Cannabinoid receptor 2 [2]
  pEC50: 8.19
Homo sapiens
  Ratio EC50: 122
Cannabinoid receptor 2 [3]
  pKi: 6.20
Cannabinoid receptor 2 [4]
  Efficacy: 96%
[16]
  clearance: 102 mL/min/kg
[17]
  Tmax: 60 min
Cannabinoid receptor 2 [5]
  pKi: 6.35
Cannabinoid receptor 1 [6]
  pKi: 4.87
[7]
  half-life: 14.2 min
Cannabinoid receptor 1 [8]
  pEC50: 6.10
[18]
  Vd: 3.61 L/kg
[19]
  bioavailability: 8%
[20]
  half-life: 534 min
Rattus norvegicus [21]
  Activity: Active
Cannabinoid receptor 1 [9]
  Efficacy: 83%
[10]
  half-life: 51.3 min

## O=C(Nc1sc2c(c1C(=O)N1CCCCC1)CCOC2)c1ccccc1C(F)(F)F
Cannabinoid receptor 1 [1]
  pKi: 4.93
Mus musculus
  inhibition in vivo at 30 mg/kg: 32%
Cannabinoid receptor 2 [2]
  pEC50: 8.52
Homo sapiens
  Ratio EC50: 204
Cannabinoid receptor 2 [3]
  pKi: 5.79
Cannabinoid receptor 2 [4]
  Efficacy: 99%
Cannabinoid receptor 2 [5]
  pKi: 6.62
Cannabinoid receptor 1 [6]
  pKi: 4.82
[7]
  half-life: 5.28 min
Cannabinoid receptor 1 [8]
  pEC50: 6.22
Cannabinoid receptor 1 [9]
  Efficacy: 93%
[10]
  half-life: 15.5 min

## O=C(Nc1sc2c(c1C(=O)N1CCOCC1)CCCC2)c1ccccc1Cl
Cannabinoid receptor 2 [2]
  pEC50: 8.00
Homo sapiens
  Ratio EC50: 25
Cannabinoid receptor 2 [4]
  Efficacy: 95%
[22]
  Efficacy: 107%
Cannabinoid receptor 2 [23]
  pEC50: 7.30
Cannabinoid receptor 1 [8]
  pEC50: 6.60
Cannabinoid receptor 1 [9]
  Efficacy: 77%

## O=C(Nc1sc2c(c1C(=O)NCC1CC1)CCOC2)c1ccccc1OC(F)(F)F
Cannabinoid receptor 2 [2]
  pEC50: 7.46
Homo sapiens
  Ratio EC50: 15
Cannabinoid receptor 2 [4]
  Efficacy: 94%
Cannabinoid receptor 1 [8]
  pEC50: 6.28
Cannabinoid receptor 1 [9]
  Efficacy: 88%

## O=C(Nc1sc2c(c1C(=O)N1CC(F)(F)C1)CCOC2)c1ccccc1C(F)(F)F
Cannabinoid receptor 1 [1]
  pKi: 5.14
Mus musculus
  inhibition in vivo at 30 mg/kg: 15%
Cannabinoid receptor 2 [2]
  pEC50: 8.60
Homo sapiens
  Ratio EC50: 118
Cannabinoid receptor 2 [3]
  pKi: 6.23
Cannabinoid receptor 2 [4]
  Efficacy: 106%
Cannabinoid receptor 2 [5]
  pKi: 7.09
Cannabinoid receptor 1 [6]
  pKi: < 4.52
[7]
  half-life: 8 min
Cannabinoid receptor 1 [8]
  pEC50: 6.53
Cannabinoid receptor 1 [9]
  Efficacy: 84%
[10]
  half-life: 37.4 min

## COC1CN(C(=O)c2c(NC(=O)CC(C)(C)C)sc3c2CCCC3)C1
Cannabinoid receptor 2 [2]
  pEC50: 7.33
Homo sapiens
  Ratio EC50: 85
Cannabinoid receptor 2 [4]
  Efficacy: 110%
Cannabinoid receptor 1 [8]
  pEC50: 5.40
Cannabinoid receptor 1 [9]
  Efficacy: 63%
